Assay results reported in PMC4126480, “Evaluation of drug interaction potential of Labisia pumila (Kacip Fatimah) and its constituents” (Frontiers in Pharmacology, 2014).
Several values for one entry are separate records, joined by “and”; a condition that tells them apart may be missing. Equal entries are not always repeated.

Columns and labels:
CYP2C9 = target: T1, CYP2C9 (Homo sapiens, UniProt P11712); experiment: Reversible inhibition (co-incubation assay) of recombinant CYP2C9; type: in vitro ADME
T1 construct: purchased BD Gentest (Woburn, MA, USA); host or cells: baculovirus expression system
Procedure: (§1) The assay for reversible inhibition was conducted in a total volume of 200 μL in 96-well microplates. The assay conditions, enzyme and substrate concentrations were similar as reported earlier ([Crespi et al., 1997]; [Manda et al., 2013]). Test samples or positive controls were serially diluted in a solution (100 μL) of cofactors mix, control protein (0.05 mg of protein/mL), and G-6-PDH to achieve six concentrations (100-0.4 μM or μg/mL). Initial readings were taken to record any inherent fluorescence and the plates were incubated at 37°C for 10 min. Reaction was initiated by the addition of enzyme substrate mixture (100 μL) followed by incubation for 15, 30, or 45 min. The reaction was terminated by the addition of 75 μL of ice cold acetonitrile/0.5 M Tris base (80:20). Fluorescence was measured on Spectramax M5 plate reader (Molecular Devices, Sunnyvale, CA, USA) at specified excitation and emission wavelengths for each substrate. IC50 values (co-incubation assay) were obtained from concentration-response curves generated by plotting concentration versus % inhibition.

CYP2C19 [1] = target: T2, CYP2C19 (Homo sapiens, UniProt P33261); experiment: Time dependent inhibition (pre-incubation assay) of recombinant CYP2C19; type: in vitro ADME; details: recombinant CYP2C19, 30 min pre-incubation
T2 construct: purchased BD Gentest (Woburn, MA, USA); host or cells: baculovirus expression system
Procedure: Time dependent inhibition (TDI) of CYPs was measured as described earlier by [Sekiguchi et al. (2009)]. The reaction mixture (180–190 μL), consisting of test sample, recombinant enzyme, control protein (0.05 mg of protein/mL), cofactor mix, G-6-PDH, and 50 mM potassium phosphate buffer (pH 7.4) was pre-incubated for 30 min followed by addition of respective fluorescent substrates (10–20 μL) and further incubation for 15 (CYP1A2), 30 (CYP3A4), or 45 (CYP 2C9 and 2C19) min. The reaction was terminated by addition of 75 μL of ice cold acetonitrile/0.5 M Tris base (80:20) and fluorescence was measured as above. IC50 values (pre-incubation assay) were obtained as above. The shift in the concentration-response curve was calculated as the ratio of IC50 (co-incubation)/IC50 (pre-incubation).

CYP2D6 = target: T3, CYP2D6 (Homo sapiens, UniProt P10635); experiment: Prediction of in vivo HDI from in vitro results, CYP2D6; details: for Likelihood of causing HDI: CYP2D6, IC50 compared with estimated GIT and plasma concentrations; for Plasma concentration: Table 3, CYP2D6 section
T3 construct: purchased BD Gentest (Woburn, MA, USA); host or cells: baculovirus expression system
Procedure: (§2) All assumptions to predict the HDI potential of KF methanolic extract and its constituents were according to previously published report ([Awortwe et al., 2014]). The % yield was calculated from the amounts extracted from the KF roots ([Ali and Khan, 2011]). The human GIT volume is 250 mL and plasma volume is about 3 L. The commonly used maximum dose of KF extract capsules is 560 mg per day ([Abdul Kadir et al., 2012]) and accordingly we estimated the concentration per dose, GIT, and plasma concentrations of extract and its constituents. We then compared the in vitro IC50 values obtained from recombinant CYPs with estimated GIT and plasma concentrations. If the IC50 values were lower than the GIT or plasma concentration, then the test compound or extract is likely to cause HDI in vivo.

CYP2C19 [2] = target: T2, CYP2C19; experiment: Prediction of in vivo HDI from in vitro results, CYP2C19; design: key to Likelihood of causing HDI: If the IC50 values were lower than the GIT or plasma concentration, then the test compound or extract is likely to cause HDI in vivo; details: for Likelihood of causing HDI: CYP2C19, IC50 compared with estimated GIT and plasma concentrations; for Plasma concentration: Table 3, CYP2C19 section
Procedure: as §2

CYP3A4 = target: T4, CYP3A4 (Homo sapiens, UniProt P08684); experiment: Prediction of in vivo HDI from in vitro results, CYP3A4; design: key to Likelihood of causing HDI: If the IC50 values were lower than the GIT or plasma concentration, then the test compound or extract is likely to cause HDI in vivo; details: for Likelihood of causing HDI: CYP3A4, IC50 compared with estimated GIT and plasma concentrations; for Plasma concentration: Table 3, CYP3A4 section
T4 construct: purchased BD Gentest (Woburn, MA, USA); host or cells: baculovirus expression system
Procedure: as §2

CYP1A2 = target: T5, CYP1A2 (Homo sapiens, UniProt P05177); experiment: Reversible inhibition of recombinant CYP1A2; type: in vitro ADME
T5 construct: purchased BD Gentest (Woburn, MA, USA); host or cells: baculovirus expression system
T5 sequence (P05177 1-516): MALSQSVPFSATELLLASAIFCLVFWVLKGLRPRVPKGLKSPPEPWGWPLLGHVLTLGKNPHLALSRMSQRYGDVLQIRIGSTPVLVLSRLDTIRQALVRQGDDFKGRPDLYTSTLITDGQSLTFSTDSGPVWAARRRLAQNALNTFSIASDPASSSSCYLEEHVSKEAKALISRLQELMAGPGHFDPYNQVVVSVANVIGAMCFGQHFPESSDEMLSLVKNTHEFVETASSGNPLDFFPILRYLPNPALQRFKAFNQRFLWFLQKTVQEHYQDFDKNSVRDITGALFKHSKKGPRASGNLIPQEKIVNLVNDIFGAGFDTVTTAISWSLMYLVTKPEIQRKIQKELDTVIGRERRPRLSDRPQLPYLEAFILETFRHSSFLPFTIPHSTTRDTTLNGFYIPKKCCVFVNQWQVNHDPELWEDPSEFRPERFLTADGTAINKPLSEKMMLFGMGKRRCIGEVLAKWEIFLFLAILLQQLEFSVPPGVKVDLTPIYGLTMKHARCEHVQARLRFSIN
Procedure: as §1

T3 sequence (P10635 whole entry): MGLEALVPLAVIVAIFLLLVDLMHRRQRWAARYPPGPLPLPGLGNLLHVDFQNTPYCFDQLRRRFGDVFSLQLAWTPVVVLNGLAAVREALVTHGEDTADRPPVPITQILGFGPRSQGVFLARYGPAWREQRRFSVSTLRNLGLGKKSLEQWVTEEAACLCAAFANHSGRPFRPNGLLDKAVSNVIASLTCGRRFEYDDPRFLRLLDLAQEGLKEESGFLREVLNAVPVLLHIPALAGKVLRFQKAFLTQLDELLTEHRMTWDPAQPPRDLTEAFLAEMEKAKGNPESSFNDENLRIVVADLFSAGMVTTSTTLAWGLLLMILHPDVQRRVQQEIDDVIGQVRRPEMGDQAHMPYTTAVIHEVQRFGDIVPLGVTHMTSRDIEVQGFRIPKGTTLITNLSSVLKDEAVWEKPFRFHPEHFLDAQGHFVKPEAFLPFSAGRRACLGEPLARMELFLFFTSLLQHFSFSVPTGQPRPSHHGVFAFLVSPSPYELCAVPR
T4 sequence (P08684 whole entry): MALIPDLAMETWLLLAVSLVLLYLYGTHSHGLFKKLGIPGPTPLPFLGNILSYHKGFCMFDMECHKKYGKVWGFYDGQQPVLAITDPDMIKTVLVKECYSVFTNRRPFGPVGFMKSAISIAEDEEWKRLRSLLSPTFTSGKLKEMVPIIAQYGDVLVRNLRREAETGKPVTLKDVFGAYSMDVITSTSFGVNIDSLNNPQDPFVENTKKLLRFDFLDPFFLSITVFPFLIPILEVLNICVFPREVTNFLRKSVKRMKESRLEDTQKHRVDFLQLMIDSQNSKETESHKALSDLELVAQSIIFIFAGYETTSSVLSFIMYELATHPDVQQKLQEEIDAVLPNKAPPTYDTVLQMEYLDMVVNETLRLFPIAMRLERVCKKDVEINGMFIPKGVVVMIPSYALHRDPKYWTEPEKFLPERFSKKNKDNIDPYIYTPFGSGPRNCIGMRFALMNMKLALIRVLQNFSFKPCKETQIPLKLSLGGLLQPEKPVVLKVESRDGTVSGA
T2 sequence (P33261 whole entry): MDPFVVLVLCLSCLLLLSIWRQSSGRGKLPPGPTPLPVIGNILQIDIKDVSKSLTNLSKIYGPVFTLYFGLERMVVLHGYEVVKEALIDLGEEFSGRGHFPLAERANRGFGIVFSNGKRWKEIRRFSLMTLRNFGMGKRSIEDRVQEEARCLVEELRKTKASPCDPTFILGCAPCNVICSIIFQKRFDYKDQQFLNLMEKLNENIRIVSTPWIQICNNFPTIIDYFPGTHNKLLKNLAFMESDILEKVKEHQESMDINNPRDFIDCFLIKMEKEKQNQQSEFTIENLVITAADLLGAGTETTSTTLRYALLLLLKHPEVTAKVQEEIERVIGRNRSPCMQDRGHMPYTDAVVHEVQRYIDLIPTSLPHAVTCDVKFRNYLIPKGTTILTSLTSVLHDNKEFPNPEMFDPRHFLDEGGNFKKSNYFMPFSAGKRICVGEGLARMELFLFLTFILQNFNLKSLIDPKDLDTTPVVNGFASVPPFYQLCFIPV
T1 sequence (P11712 whole entry): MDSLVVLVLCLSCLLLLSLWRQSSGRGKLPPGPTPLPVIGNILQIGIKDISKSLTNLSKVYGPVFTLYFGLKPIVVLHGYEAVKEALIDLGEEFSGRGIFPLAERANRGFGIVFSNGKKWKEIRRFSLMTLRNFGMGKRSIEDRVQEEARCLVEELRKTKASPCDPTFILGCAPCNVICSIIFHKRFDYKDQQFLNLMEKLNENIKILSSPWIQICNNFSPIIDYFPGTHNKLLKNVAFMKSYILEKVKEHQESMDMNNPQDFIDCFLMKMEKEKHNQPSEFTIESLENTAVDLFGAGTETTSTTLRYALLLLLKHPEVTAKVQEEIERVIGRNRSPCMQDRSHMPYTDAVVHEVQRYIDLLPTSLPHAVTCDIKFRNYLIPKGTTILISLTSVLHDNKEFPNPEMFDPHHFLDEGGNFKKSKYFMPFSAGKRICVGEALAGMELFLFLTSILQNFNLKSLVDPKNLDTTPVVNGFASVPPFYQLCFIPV

Row | IC50 (CYP2C9) | IC50 (CYP2C19 [1]) | Likelihood of causing HDI (CYP2D6) | Plasma concentration (CYP2D6) | Likelihood of causing HDI (CYP2C19 [2]) | Plasma concentration (CYP2C19 [2]) | Likelihood of causing HDI (CYP3A4) | Plasma concentration (CYP3A4) | IC50 (CYP1A2) | Structure (SMILES)
1 | 11.9 µM | 3.2 ± 0.2 µM | Remote | 1460 ng/mL | likely | 13220 ng/mL | likely | 13220 ng/mL | 91.1 µM | CCCC/C=C\CCCCCCCCCc1cc(O)cc(O)c1 [5-[10(Z)-pentadecenyl]resorcinol]
2 | 16 µM and 15.1 µM | 11 ± 0.7 µM | unlikely | 1640 ng/mL | likely | 790 ng/mL | unlikely | 790 ng/mL | 75.4 µM | CCCC/C=C\CCCCCCCCCC1=C(c2c(O)cc(O)cc2CCCCCCCCC/C=C\CCCC)C(=O)C=C(OC)C1=O [Demethylbelamcandaquinone B]
3 | 17 µM | 16 ± 1.1 µM | unlikely | 16 ng/mL | unlikely | 16 ng/mL | unlikely | 16 ng/mL | 47.9 µM | CCCC/C=C\CCCCCCCCCc1cc(O)cc2oc3cc(OC)c(O)c(CCCCCCCCC/C=C\CCCC)c3c12 [Fatimahol]

Row | Structure (SMILES) | IC50 (CYP2C9) | IC50 (CYP2C19 [1]) | Likelihood of causing HDI (CYP2D6) | Plasma concentration (CYP2D6) | Likelihood of causing HDI (CYP2C19 [2]) | Plasma concentration (CYP2C19 [2]) | Likelihood of causing HDI (CYP3A4) | Plasma concentration (CYP3A4) | IC50 (CYP1A2)
4 | CCCC/C=C\CCCCCCCCCc1cc(O)cc(OC)c1 [Belamcandol B] | 69.2 µM | 3.2 ± 0.3 µM | unlikely | 650 ng/mL | likely |  | Remote | 1520 ng/mL | 220 µM
